Structures are written as SMILES.

Experiment [1] has as its system corn. Briefly: postemergence herbicidal activity on corn. Conditions: Zea mays, post-emergence, 0.3 Kg/Ha, after 12-17 days, read-out: POSTEMERGENCE HERBICIDAL ACTIVITY (% CONTROL) CRN. Format: in vivo, Zea mays var. Pioneer 3732. On the procedure: (§1) The (oxaalkyl)phenyl-substituted heterocycles of this invention were tested for pre- and postemergence herbicidal activity using a variety of crops and weeds. The test plants included soybean (Glycine max var. Winchester),field corn (Zea mays var. Pioneer 3732), wheat (Triticum aestivum var. Lew), morningglory (Ipomea lacunosa or Ipomea hederacea), […] (Abutilon theophrasti), green foxtail (Setaria viridis), Johnsongrass (Sorghum halepense), blackgrass (Aloepecurus myosuroides), common chickweed (Stellaria media), and common cocklebur (Xanthium strumarium L.).
(§2) For preemergence testing, two disposable fiber flats (8 cm×15 cm×25 cm) for each rate of application of each candidate herbicide were filled to an approximate depth of 6.5 cm with steam-sterilized sandy loam soil. The soil was leveled and impressed with a template to provide five evenly spaced furrows 13 cm long and 0.5 cm deep in each flat. Seeds of soybean, wheat, corn, green foxtail, and johnsongrass were planted in the furrows of the first flat, and seeds of velvetleaf, morningglory, common chickweed, cocklebur, and blackgrass were planted in the furrows of the second flat. The five-row template was employed to firmly press the seeds into place. A topping soil of equal portions of sand and sandy loam soil was placed uniformly on top of each flat to a depth of approximately 0.5 cm. Flats for postemergence testing were prepared in the same manner except that they were planted 9-14 days prior to the preemergence flats and were placed in a greenhouse and watered, thus allowing the seeds to germinate and the foliage to develop.
(§3) In both pre- and postemergence tests, a stock solution of the candidate herbicide was prepared by dissolving 0.27 g of the compound in 20 mL of water/acetone (50/50) containing 0.5% v/v sorbitan monolaurate. For an application rate of 3000 g/ha of herbicide a 10 mL portion of the stock solution was diluted with water/acetone (50/50) to 45 mL.
(§4) The preemergence flats were initially subjected to a light water spray. The four flats were placed two by two along a conveyor belt (i.e., the two preemergence followed by the two postemergence flats). The conveyor belt fed under a spray nozzle mounted about ten inches above the postemergent foliage. The preemergent flats were elevated on the belt so that the soil surface was at the same level below the spray nozzle as the foliage canopy of the postemergent plants. The spray of herbicidal solution was commenced and once stabilized, the flats were passed under the spray at a speed to receive a coverage equivalent of 1000 L/ha. At this coverage the application rates are those shown in the above table for the individual herbicidal solutions. The preemergence flats were watered immediately thereafter, placed in the greenhouse and watered regularly at the soil surface. The postemergence flats were immediately placed in the green-house and not watered until 24 hours after treatment with the test solution. Thereafter they were regularly watered at ground level. After 12-17 days the plants were examined and the phytotoxicity data were recorded.
(§5) Phytotoxicity data were taken as percent control. Percent control was by a method similar to the 0 to 1 00 rating system disclosed in "Research Methods in Weed Science," 2nd ed., B. Truelove, Ed.; Southern Weed Science Society; Auburn University, Auburn, Ala., 1977.

Experiment [2] has as its system johnsongrass. Briefly: preemergence herbicidal activity on johnsongrass. Format: in vivo. Conditions: Sorghum halepense, pre-emergence, 0.3 Kg/Ha, after 12-17 days, read-out: PREEMERGENCE HERBICIDAL ACTIVITY (% CONTROL) SORHA. On the procedure: as §1, §2, §3, §4, §5
The subject of experiment [3] is velvetleaf. Briefly: preemergence herbicidal activity on velvetleaf. Format: in vivo. Particulars: Abutilon theophrasti, pre-emergence, 0.3 Kg/Ha, after 12-17 days, read-out: PREEMERGENCE HERBICIDAL ACTIVITY (% CONTROL) ABUTH. On the procedure:
as §1, §2, §3, §4, §5

Experiment [4] concerns wheat. Put plainly: postemergence herbicidal activity on wheat. Conditions: Triticum aestivum, post-emergence, 0.3 Kg/Ha, after 12-17 days, read-out: POSTEMERGENCE HERBICIDAL ACTIVITY (% CONTROL) WHT. Format: in vivo, Triticum aestivum var. Lew. On the procedure: as §1, §2, §3, §4, §5
The test system of experiment [5] is blackgrass. Put plainly: postemergence herbicidal activity on blackgrass. Format: in vivo, Aloepecurus myosuroides. Particulars: Alopecurus myosuroides, post-emergence, 0.3 Kg/Ha, after 12-17 days, read-out: POSTEMERGENCE HERBICIDAL ACTIVITY (% CONTROL) ALOMY. On the procedure: as §1, §2, §3, §4, §5
For experiment [6], the system named is cocklebur. Briefly: postemergence herbicidal activity on cocklebur. Format: in vivo, Xanthium strumarium L. Particulars: Xanthium strumarium, post-emergence, 0.3 Kg/Ha, after 12-17 days, read-out: POSTEMERGENCE HERBICIDAL ACTIVITY (% CONTROL) XANPE. On the procedure: as §1, §2, §3, §4, §5
The test system of experiment [7] is johnsongrass. Put plainly: postemergence herbicidal activity on johnsongrass. Particulars: Sorghum halepense, post-emergence, 0.3 Kg/Ha, after 12-17 days, read-out: POSTEMERGENCE HERBICIDAL ACTIVITY (% CONTROL) SORHA. It counts as in vivo. On the procedure:
as §1, §2, §3, §4, §5

For experiment [8], the system named is blackgrass. Briefly: preemergence herbicidal activity on blackgrass. Particulars: Alopecurus myosuroides, pre-emergence, 0.3 Kg/Ha, after 12-17 days, read-out: PREEMERGENCE HERBICIDAL ACTIVITY (% CONTROL) ALOMY. Format: in vivo, Aloepecurus myosuroides. On the procedure: as §1, §2, §3, §4, §5
The subject of experiment [9] is chickweed. Put plainly: postemergence herbicidal activity on chickweed. Format: in vivo. Conditions: Stellaria media, post-emergence, 0.3 Kg/Ha, after 12-17 days, read-out: POSTEMERGENCE HERBICIDAL ACTIVITY (% CONTROL) STEME. On the procedure:
as §1, §2, §3, §4, §5

For experiment [10], the system named is corn. Briefly: preemergence herbicidal activity on corn. Conditions: Zea mays, pre-emergence, 0.3 Kg/Ha, after 12-17 days, read-out: PREEMERGENCE HERBICIDAL ACTIVITY (% CONTROL) CRN. It counts as in vivo, Zea mays var. Pioneer 3732. On the procedure:
as §1, §2, §3, §4, §5

Experiment [11] deals with wheat. Put plainly: preemergence herbicidal activity on wheat. It counts as in vivo, Triticum aestivum var. Lew. Conditions: Triticum aestivum, pre-emergence, 0.3 Kg/Ha, after 12-17 days, read-out: PREEMERGENCE HERBICIDAL ACTIVITY (% CONTROL) WHT. On the procedure:
as §1, §2, §3, §4, §5

In experiment [12] the test system is green foxtail. Briefly: preemergence herbicidal activity on green foxtail. Conditions: Setaria viridis, pre-emergence, 0.3 Kg/Ha, after 12-17 days, read-out: PREEMERGENCE HERBICIDAL ACTIVITY (% CONTROL) SETVI. Format: in vivo. On the procedure:
as §1, §2, §3, §4, §5

In experiment [13] the test system is velvetleaf. Put plainly: postemergence herbicidal activity on velvetleaf. It counts as in vivo. Particulars: Abutilon theophrasti, post-emergence, 0.3 Kg/Ha, after 12-17 days, read-out: POSTEMERGENCE HERBICIDAL ACTIVITY (% CONTROL) ABUTH. On the procedure:
as §1, §2, §3, §4, §5

Experiment [14] deals with soybean. Put plainly: preemergence herbicidal activity on soybean. Format: in vivo, Glycine max var. Winchester. Particulars: Glycine max, pre-emergence, 0.3 Kg/Ha, after 12-17 days, read-out: PREEMERGENCE HERBICIDAL ACTIVITY (% CONTROL) SOY. On the procedure: as §1, §2, §3, §4, §5
The test system of experiment [15] is morningglory. Put plainly: preemergence herbicidal activity on morningglory. Particulars: Ipomoea, pre-emergence, 0.3 Kg/Ha, after 12-17 days, read-out: PREEMERGENCE HERBICIDAL ACTIVITY (% CONTROL) IPOSS. Format: in vivo, Ipomea lacunosa or Ipomea hederacea. On the procedure: as §1, §2, §3, §4, §5
For experiment [16], the system named is chickweed. Put plainly: preemergence herbicidal activity on chickweed. It counts as in vivo. Conditions: Stellaria media, pre-emergence, 0.3 Kg/Ha, after 12-17 days, read-out: PREEMERGENCE HERBICIDAL ACTIVITY (% CONTROL) STEME. On the procedure: as §1, §2, §3, §4, §5
The subject of experiment [17] is morningglory. Briefly: postemergence herbicidal activity on morningglory. It counts as in vivo, Ipomea lacunosa or Ipomea hederacea. Particulars: Ipomoea, post-emergence, 0.3 Kg/Ha, after 12-17 days, read-out: POSTEMERGENCE HERBICIDAL ACTIVITY (% CONTROL) IPOSS. On the procedure:
as §1, §2, §3, §4, §5

Experiment [18] relates to soybean. Briefly: postemergence herbicidal activity on soybean. Conditions: Glycine max, post-emergence, 0.3 Kg/Ha, after 12-17 days, read-out: POSTEMERGENCE HERBICIDAL ACTIVITY (% CONTROL) SOY. Format: in vivo, Glycine max var. Winchester. On the procedure:
as §1, §2, §3, §4, §5

For experiment [19], the system named is green foxtail. Put plainly: postemergence herbicidal activity on green foxtail. It counts as in vivo. Conditions: Setaria viridis, post-emergence, 0.3 Kg/Ha, after 12-17 days, read-out: POSTEMERGENCE HERBICIDAL ACTIVITY (% CONTROL) SETVI. On the procedure:
as §1, §2, §3, §4, §5

Experiment [20] concerns cocklebur. Put plainly: preemergence herbicidal activity on cocklebur. Format: in vivo, Xanthium strumarium L. Conditions: Xanthium strumarium, pre-emergence, 0.3 Kg/Ha, after 12-17 days, read-out: PREEMERGENCE HERBICIDAL ACTIVITY (% CONTROL) XANPE. On the procedure:
as §1, §2, §3, §4, §5

For `Cc1nn(-c2cc(CC(Cl)C(C)(C)O)c(Cl)cc2F)c(=O)n1C(F)F` (centres unmarked) [Compound 2], the activity at 300 g/ha in the experiment with corn [1] was found to be 80%; with johnsongrass [2], 90%; in the experiment with velvetleaf [3] it was 100%; in the experiment with wheat [4], 60%; with blackgrass [5], 70%; with cocklebur [6] it was 55%. Moreover, the activity at 300 g/ha was 80% in the experiment on johnsongrass [7]; 70% with blackgrass [8]; 70% in the experiment with chickweed [9]; 80% in the experiment on corn [10]; 70% with wheat [11]; 100% with green foxtail [12]. In addition, the activity at 300 g/ha in the experiment with velvetleaf [13] came to 100%; in the experiment on soybean [14], 60%; in the experiment with morningglory [15], 100%; in the experiment on chickweed [16], 90%; in the experiment on morningglory [17], 100%; in the experiment with soybean [18], 80%. The activity at 300 g/ha with green foxtail [19] stood at 80%; in the experiment with cocklebur [20], 60%.
For the compound `CC(=O)OC(C)(C)C(Cl)Cc1cc(-n2c(=O)cc(C(F)(F)F)n(C)c2=O)c(F)cc1Cl` (centres unmarked) [Compound 16, 2-CHLORO-3-METHYL-1-[2-CHLORO-4-FLUORO-5-[1-METHYL-6-TRIFLUOROMETHYL-2,4(1H,3H)-PYRIMIDINDION-3-YL]PHENYL]BUTAN-3-YL ACETATE], the activity at 300 g/ha in the experiment on corn [1] amounted to 90%; in the experiment on johnsongrass [2] it was 100%; with velvetleaf [3], 100%; with wheat [4], 60%; in the experiment on blackgrass [5], 100%; in the experiment with cocklebur [6] it was 100%. The activity at 300 g/ha with johnsongrass [7] amounted to 100%; in the experiment with chickweed [9] it was 100%; in the experiment on corn [10] it was 90%; in the experiment on wheat [11] it was 70%; in the experiment on green foxtail [12], 100%; with velvetleaf [13], 100%. The activity at 300 g/ha in the experiment on soybean [14] came to 100%; in the experiment with morningglory [15] it was 100%; with chickweed [16] it was 100%; with morningglory [17] it was 90%; with soybean [18] it was 95%; in the experiment with green foxtail [19], 100%. In addition, in the experiment on cocklebur [20], the activity at 300 g/ha came out at 100%.
Take `CC(=O)OC(C)(C)C(Cl)Cc1cc(-c2nn(C)c(OC(F)F)c2Cl)c(F)cc1Cl` (centres unmarked) [Compound 18]: the activity at 300 g/ha amounted to 75% in the experiment with corn [1]; 80% in the experiment with johnsongrass [2]; 100% in the experiment with velvetleaf [3]; 40% with wheat [4]; 80% in the experiment on blackgrass [5]; 90% in the experiment with cocklebur [6]. In addition, the activity at 300 g/ha in the experiment on johnsongrass [7] turned out to be 80%; in the experiment on chickweed [9], 100%; in the experiment on corn [10], 20%; in the experiment on wheat [11], 20%; with green foxtail [12] it was 100%; in the experiment on velvetleaf [13], 100%. Besides, the activity at 300 g/ha with soybean [14] amounted to 70%; in the experiment on morningglory [15] it was 100%; with chickweed [16], 100%; with morningglory [17] it was 100%; in the experiment with soybean [18], 80%; in the experiment on green foxtail [19] it was 100%. Further, in the experiment on cocklebur [20], the activity at 300 g/ha came to 60%.
`Cc1nn(-c2cc(CC(Cl)CO)c(Cl)cc2F)c(=O)n1C(F)F` (centres unmarked) [Compound 24]: the activity at 300 g/ha in the experiment with corn [1] worked out at 80%; with johnsongrass [2], 65%; in the experiment on velvetleaf [3], 100%; with wheat [4], 30%; with blackgrass [5] it was 30%; in the experiment on cocklebur [6], 100%. Moreover, the activity at 300 g/ha with johnsongrass [7] amounted to 80%; in the experiment on blackgrass [8], 10%; with chickweed [9], 10%; in the experiment with corn [10], 70%; in the experiment with wheat [11] it was 50%; in the experiment with green foxtail [12] it was 100%. The activity at 300 g/ha in the experiment with velvetleaf [13] amounted to 100%; in the experiment with soybean [14], 30%; with morningglory [15], 100%; in the experiment on morningglory [17], 100%; with soybean [18], 80%; with green foxtail [19], 80%. Moreover, the activity at 300 g/ha with cocklebur [20] came out at 95%.

Source of the values: USH1923H, “Herbicidal (oxaalkyl) phenyl-substituted heterocycles” (FMC Corporation, priority 1998, dated 2000).
